{"source": "patent US11286236B2", "about": "“Compound, agent and composition for the suppression of cancer growth” (Vector Vitale IP LLC, priority 2018, dated 2022)", "test_system": "Normal Human Fibroblasts", "assay": "Metabolic activity of normal human fibroblasts (MTT assay)", "assay_type": "cell-based", "procedure": "In Vitro Assessment of the Effects of Experimental Compound ^85Rbe-E2 on metabolic Activity of Normal Human Fibroblasts (MTT Assay)\nIn Vitro Assessment of the Effects of E2+^85Rbe on Metabolic Activity of Normal Human Fibroblasts (MTT Assay)\nProliferative and metabolic activity of cells was determined by the colorimetric method.\nThe metabolic activity of the cells (i.e., the number of living cells) was assessed by MTT staining.\n24 hours after the last reagent, the cells were seeded at a concentration of 1×10^4 cells/well in wells of a 96-well plate in complete DMEM nutrient medium with 10% FBS and 40 μg/ml gentamicin. The cells were cultured in a humidified atmosphere at 5% CO2 and 37° C. for 24 hours. After 24 hours, various doses of experimental substances were added to the respective wells. The cells were incubated at 37° C. and 5% CO2 for an additional 72 hours.\nUpon completion of the incubation with the preparations, the proliferative and metabolic activity of the cells in the experiment was evaluated by the colorimetric method by staining MTT cells:\n10 μl of the MTT solution (5 mg/ml of the dye in phosphate-buffered saline) was added to each well of the plate; the plate was incubated in a CO2 incubator at 37° C. for 3 hours. After that, the medium was removed from the wells, and the formed tetraformazan crystals were dissolved in 100 μl of dimethylsulfoxide.\nWhen MTT was used, the results were evaluated using a multi-well spectrophotometer at an excitation wavelength of 540 nm. The percentage of viable cells was calculated by the formula: IR=(A540(experiment)/A540(control))×100%.", "note": "Structures can show the parent of a compound that is named as a salt."}
{"smiles": "Cc1ccc(S(=O)(=O)Nc2ccccc2NC(=O)c2ccccc2)cc1", "note": "[^85Rbe − E2, ^85Rb-enriched rubidium salt of N-benzoyl-N′-(4-toluenesulfonyl)-o-phenylenediamine]", "values": [{"measurement": "Metabolic activity of cells, %", "setting": "1.25 μg/ml", "result": "105.1 ± 2.3", "unit": "%"}, {"measurement": "Metabolic activity of cells, %", "setting": "2.5 μg/ml", "result": "84.4 ± 4.6", "unit": "%"}, {"measurement": "Metabolic activity of cells, %", "setting": "5 μg/ml", "result": "82.3 ± 3^ %"}, {"measurement": "Metabolic activity of cells, %", "setting": "10 μg/ml", "result": "82.5 ± 1.3", "unit": "%"}, {"measurement": "Metabolic activity of cells, %", "setting": "20 μg/ml", "result": "74 ± 1.3", "unit": "%"}, {"measurement": "Metabolic activity of cells, %", "setting": "38 μg/ml", "result": "68.5 ± 1.8", "unit": "%"}, {"measurement": "Metabolic activity of cells, %", "setting": "75 μg/ml", "result": "67.4 ± 4.7", "unit": "%"}, {"measurement": "Metabolic activity of cells, %", "setting": "150 μg/ml", "result": "72.8 ± 2.1", "unit": "%"}]}
